In paper PMC10296347, “Identification of the Stapled α-Helical Peptide ATSP-7041 as a Substrate and Strong Inhibitor of OATP1B1 In Vitro” (Biomolecules, 2023):

Target: CYP2C9 (Homo sapiens, UniProt P11712)
Details: microsomes
Procedure: Text S1. Supplementary Materials and Methods.
Male Human Liver Pooled S9; Tokyo, Japan). Midazolam, midazolam-d4, 1ʹ-hydroxymidazolam, testosterone, testosterone-d3, and 6β-hydroxytestosterone, were purchased […]
(Fluorometric)) were purchased from BioVision. Inc. (Milpitas, CA, USA). Reversed vesicles […]
were commercially available.
2. Evaluation of ATSP-7041 as a substrate of CYPs
S9, with or without the NADPH generation system. S9 (A), at a 2 mg/mL protein concentration […]
The reaction solution (400 μL) was then
3. Evaluation of ATSP-7041 as an inhibitor of CYPs […]
the manufacturer’s protocol. […]
the indicated periods of times. The substrates, positive control inhibitors, and fluorescence […]
Table S1. Parameters used in LC/MS analysis.
Table S2. Substrates and positive control inhibitors used for CYPs inhibition screening.
Residual activity (% of control, i.e. without test chemical for inhibition) of human CYPs with ATSP-7041 (10 μM) in CYPs inhibition screening. The activity of CYPs were calculated as background-corrected reaction rates using the linear phase of reaction progress […]
curve. Data are presented as the mean ± S.D. (n = 3). *
Analyte Transition Polarity Ion source voltage Source temp. Collision energy LC gradient program […]
5% B (0-1 min) - 45% B (3 min)
CYP isoform Substrate Concentration Positive control inhibitor Concentration Detection Kit No. […]

CYP2C9, sequence (P11712 whole entry): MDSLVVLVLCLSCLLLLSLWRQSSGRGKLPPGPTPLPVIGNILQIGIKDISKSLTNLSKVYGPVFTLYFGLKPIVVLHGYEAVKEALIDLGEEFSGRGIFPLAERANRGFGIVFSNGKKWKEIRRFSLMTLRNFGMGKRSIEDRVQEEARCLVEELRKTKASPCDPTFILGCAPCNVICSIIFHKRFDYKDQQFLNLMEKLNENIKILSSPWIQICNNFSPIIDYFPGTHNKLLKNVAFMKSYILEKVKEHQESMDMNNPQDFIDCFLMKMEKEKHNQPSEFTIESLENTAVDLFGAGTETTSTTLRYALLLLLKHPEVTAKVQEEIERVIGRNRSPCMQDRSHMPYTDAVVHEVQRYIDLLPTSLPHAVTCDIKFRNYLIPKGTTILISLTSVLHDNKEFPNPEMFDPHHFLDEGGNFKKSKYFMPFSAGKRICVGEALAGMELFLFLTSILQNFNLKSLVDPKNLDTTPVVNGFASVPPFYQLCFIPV

Nc1ccc(S(=O)(=O)Nc2ccnn2-c2ccccc2)cc1 [Sulfaphenazole]
Residual activity (% of control) CYP2C9, positive control inhibitor: 8.59 ± 2.06 % of control
